Results: ChEMBL document CHEMBL1127934, “Synthesis of a series of brominated 1-phenyl-2-pyridylethenes as inhibitors of the protein-tyrosine kinase p56lck” (Bioorg Med Chem Lett, 1994)

Biological target: not listed separately
Assay: Inhibition of p56 Lck tyrosine kinase

**Q.** Which IC50 does the source give for `COc1cc(/C=C/c2cccnc2)cc(OC)c1OC` here?
**A.** 516 µM

**Q.** With `COc1cc(/C=C/c2ccccn2)cc(OC)c1OC` as the molecule, how does the IC50 read?
**A.** 2180 µM

Biological target: Tyrosine-protein kinase Lck (Homo sapiens, UniProt P06239)
Sequence (P06239 whole entry): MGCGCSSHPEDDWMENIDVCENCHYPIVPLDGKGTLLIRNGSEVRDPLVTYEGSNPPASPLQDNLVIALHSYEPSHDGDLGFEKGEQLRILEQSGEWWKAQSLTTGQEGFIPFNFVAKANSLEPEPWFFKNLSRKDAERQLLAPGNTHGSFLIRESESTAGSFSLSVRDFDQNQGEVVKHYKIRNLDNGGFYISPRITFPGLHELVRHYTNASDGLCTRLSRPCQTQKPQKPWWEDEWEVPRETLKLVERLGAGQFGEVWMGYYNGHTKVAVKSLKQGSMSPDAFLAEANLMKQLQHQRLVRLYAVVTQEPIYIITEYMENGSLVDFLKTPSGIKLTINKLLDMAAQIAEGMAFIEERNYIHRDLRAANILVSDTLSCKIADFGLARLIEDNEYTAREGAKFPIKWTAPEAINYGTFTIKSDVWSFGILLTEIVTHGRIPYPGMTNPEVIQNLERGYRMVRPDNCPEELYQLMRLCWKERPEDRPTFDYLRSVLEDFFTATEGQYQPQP
Assay: Inhibition of p56 Lck tyrosine kinase

**Q.** For `COc1cc(/C=C(\C#N)c2cccnc2)cc(Br)c1O`, which IC50 is on record?
**A.** 242 µM

**Q.** For `N#CC(Cc1cc(Br)c(O)c(Br)c1)c1ccccn1` (stereo not drawn), which IC50 is on record?
**A.** > 2090 µM

**Q.** Which IC50 does the source give for `N#C/C(=C\c1cc(Br)c(O)c(Br)c1)c1ccccn1` here?
**A.** 105 µM

**Q.** Which IC50 does the source give for `COc1c(Br)cc(/C=C(\C#N)c2cccnc2)cc1Br` here?
**A.** > 2530 µM

**Q.** Which IC50 does the source give for `COc1c(Br)cc(/C=C(\C#N)c2ccccn2)cc1Br` here?
**A.** > 2530 µM

**Q.** For `N#C/C(=C\c1cc(Br)c(O)c(Br)c1)c1cccnc1`, which IC50 is on record?
**A.** 168 µM
